In patent publication US12522569B2, “Substituted benzimidazole derivative and use thereof” (Chengdu FANXI Biopharma Co., Ltd., priority 2020, dated 2026):

Columns and labels:
Assay type in all cases: cell-based
[1] = biological target: T1, hPPARα (LBD) (Homo sapiens, UniProt Q07869); assay: GAL4-hPPARα (LBD) luciferase reporter transactivation in CV-1 cells; conditions: about 40 hours, relative to GW-590735 as 100%, read-out: PPAR activities EC50 PPARα
T1 construct: The receptor expression plasmid (pSG5-GAL4-hPPARα or γ or δ (LBD)); GAL4 (fusion partner); expressed in transfected cells; host or cells: CV-1 cells (ATCC)
T1 sequence (Q07869 239-466 limits assumed): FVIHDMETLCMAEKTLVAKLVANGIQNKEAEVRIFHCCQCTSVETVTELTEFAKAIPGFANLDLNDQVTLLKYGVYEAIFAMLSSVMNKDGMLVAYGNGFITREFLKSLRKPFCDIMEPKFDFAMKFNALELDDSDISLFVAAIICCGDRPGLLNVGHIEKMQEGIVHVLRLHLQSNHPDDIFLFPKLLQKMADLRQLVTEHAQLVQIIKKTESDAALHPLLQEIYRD
Description: (§1) The PPARδ activation effect of the compounds of the present invention was determined as follows (measurement of the PPAR activation effect of the test compounds (compounds in the examples)).
(§2) The receptor expression plasmid (pSG5-GAL4-hPPARα or γ or δ (LBD)), luciferase expression plasmid (pUC8-MH100×4-TK-Luc) and β-galactosidase expression plasmid (pCMX-β-GAL) (Kliewer, S. A. et. al., (1992) Nature, 358:771-774) were introduced into CV-1 cells (ATCC).
(§3) After gene introduction using the lipofection reagent DMRIE-C or Lipofectamin 2000 (Invitrogen), the cells were cultured in the presence of the test compound for 42 hours. Lysed cells were tested for luciferase activity and β-GAL activity.
(§4) The following methods were used to determine the PPAR activation effect of the tested compounds (compounds in the examples)
(§5) Receptor expression plasmid (pSG5-GAL4-hPPARα, 7 or 6 (LBD)), luciferase expression plasmid (pUC8-MH100×4-TK-Luc) and β-Galactosidase expression plasmid (pCMX-β-GAL) (Kilewer, S. A. et. al., (1992) Nature, 358: 771-774) were introduced into CV-1 cells (ATCC). After gene introduction using a lipofection reagent (Lipofectamine 2000 (Invitrogen)), the cells were cultured in the presence of the test compounds for about 40 hours.

[2] = biological target: T2, hPPARδ (LBD) (Homo sapiens, UniProt Q03181); assay: GAL4-hPPARδ (LBD) luciferase reporter transactivation in CV-1 cells; conditions: about 40 hours, relative to GW-501516 as 100%, read-out: PPAR activities EC50 PPARδ
T2 construct: The receptor expression plasmid (pSG5-GAL4-hPPARα or γ or δ (LBD)); GAL4 (fusion partner); expressed in transfected cells; host or cells: CV-1 cells (ATCC)
T2 sequence (Q03181 211-439 limits assumed): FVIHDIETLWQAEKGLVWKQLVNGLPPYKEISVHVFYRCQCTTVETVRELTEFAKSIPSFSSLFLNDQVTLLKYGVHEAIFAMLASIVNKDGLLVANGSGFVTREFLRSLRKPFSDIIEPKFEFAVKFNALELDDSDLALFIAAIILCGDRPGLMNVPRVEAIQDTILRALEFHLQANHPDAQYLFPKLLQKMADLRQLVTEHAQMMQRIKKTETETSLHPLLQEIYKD
Description: as §1, §2, §3, §4, §5

[3] = biological target: T3, hPPARγ (LBD) (Homo sapiens, UniProt P37231); assay: GAL4-hPPARγ (LBD) luciferase reporter transactivation in CV-1 cells; conditions: about 40 hours, relative to Rosiglitazone as 100%, read-out: PPAR activities EC50 PPARγ
T3 construct: The receptor expression plasmid (pSG5-GAL4-hPPARα or γ or δ (LBD)); GAL4 (fusion partner); expressed in transfected cells; host or cells: CV-1 cells (ATCC)
T3 sequence (P37231 238-503 limits assumed): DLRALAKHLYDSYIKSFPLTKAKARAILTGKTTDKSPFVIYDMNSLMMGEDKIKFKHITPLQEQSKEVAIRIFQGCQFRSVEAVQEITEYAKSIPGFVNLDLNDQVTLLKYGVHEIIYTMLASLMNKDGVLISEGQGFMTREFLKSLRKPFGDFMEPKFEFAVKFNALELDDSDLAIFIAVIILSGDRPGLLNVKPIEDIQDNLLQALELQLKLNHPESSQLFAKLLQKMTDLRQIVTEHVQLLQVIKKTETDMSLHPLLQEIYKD
Description: as §1, §2, §3, §4, §5

For CCc1cc(COc2ccccc2Cn2c(CN3CCCC3)nc3cc(Br)ccc32)ccc1OCC(=O)O [Compound 50], the EC50 [1] was 3.99 µM, the EC50 [2] was 0.803 µM and the EC50 [3] was 2.04 µM.

CCc1cc(COc2ccccc2Cn2c(CCCN3CCCC3)nc3cc(Br)ccc32)ccc1CCC(=O)O [Compound 17, 3-(4-((2-((5-Bromo-2-(3-(pyrrolidin-1-yl)propyl)-1H-benzo[d]imidazol-1-yl)methyl)-phenoxy)methyl)-2-ethylphenyl)propanoic acid] was tested, and the EC50 [1] was 3.05 µM, the EC50 [2] was 41.8 µM and the EC50 [3] was 15.4 µM.

Compound CCc1cc(COc2ccccc2Cn2c(CCCN3CCCC3)nc3cc(Br)ccc32)ccc1OCC(=O)O [Compound 15, 2-(4-((2-((5-Bromo-2-(3-(pyrrolidin-1-yl)propyl)-1H-benzo[d]imidazol-1-yl)methyl)phenoxy)methyl)-2-ethylphenoxy)acetic acid] has an EC50 [1] of 2.11 µM, an EC50 [2] of 6.56 µM and an EC50 [3] of 9.11 µM.

For CCc1cc(COc2ccccc2Cn2c(CCc3ccc(Cl)cc3Cl)nc3cc(Br)ccc32)ccc1CCC(=O)O [Compound 3, 3-(4-((2-((5-Bromo-2-(2.4-dichlorophenethyl)-1H-benzo[d]imidazol-1-yl)methyl)phenoxy)methyl)-2-ethylphenyl)propanoic acid], the EC50 [1] was 0.104 µM, the EC50 [2] was 0.0365 µM and the EC50 [3] was 0.186 µM.

Work on CCc1cc(COc2ccccc2Cn2c(CN3CCCC3)nc3cc(Br)ccc32)ccc1CCC(=O)O [Compound 14] yielded an EC50 [1] of 3.42 µM, an EC50 [2] of 0.142 µM and an EC50 [3] of 0.672 µM.
